{
  "source": "paper PMC5833756",
  "about": "“A novel ruthenium complex with xanthoxylin induces S-phase arrest and causes ERK1/2-mediated apoptosis in HepG2 cells through a p53-independent pathway” (Cell Death & Disease, 2018)",
  "key": {"[1]": {"test_system": "HSC-3", "format": "cell-based, human"}, "[2]": {"test_system": "ACP-03", "format": "cell-based, human"}, "[3]": {"test_system": "MCF-7", "format": "cell-based, human"}, "[4]": {"test_system": "K-562", "format": "cell-based, human"}, "[5]": {"test_system": "HepG2 cells", "assay": "Gene expression analysis by qPCR array (TaqMan Array Human Molecular Mechanisms of Cancer)", "format": "cell-based", "set-up": "key to RQ CCND3 gene expression / RQ CDC42 gene expression / RQ DVL1 gene expression / RQ FYN gene expression / RQ KRAS gene expression / RQ MAP2K1 gene expression / RQ MAPK1 gene expression / RQ MAPK14 gene expression / RQ NFKB2 gene expression / RQ RAF1 gene expression / RQ RELA gene expression / RQ BCAR1 gene expression: 2^-ΔΔCT relative quantification vs 0.2% DMSO control (calibrator = 1)", "details": "HepG2, 12 h; RCX 12 µM, DOX 2 µM", "protocol": "HepG2 cells were plated in bottles for cell culture (7 × 10^4 cells/mL). […] The RNA was evaluated by fluorimetry using QuBit (Life Technologies; Camarillo, CA, USA). RNA reverse transcription was performed using a Superscript VILO™ Kit (Invitrogen Corporation; Waltham, MA, USA). A 96-well plate TaqMan® Array Human Molecular Mechanisms of Cancer (ID 4418806, Applied Biosystems^TM, Foster City, CA, USA) was used for the gene expression study by qPCR. The reactions were conducted in an ABI ViiA7 system (Applied Biosystems^TM; Foster City, CA, USA). The cycle conditions comprised 2 min at 50 °C, 20 s at 95 °C, then 40 cycles of 3 s at 95 °C and 30 s at 60 °C. The relative quantification (RQ) of mRNA expression was calculated by the 2^-ΔΔCT method[40] using Gene Expression Suite™ Software (Applied Biosystems^TM), and the cells treated with the negative control (0.2% DMSO) were used as a calibrator. The reactions were normalized by the geometric mean of the RQ of the reference genes GAPDH, 18S and HPRT1. All experiments were performed in DNase/RNase-free conditions."}},
  "note": "“And” between values parts separate entries of the source, which are not always exact repeats. Equal values may be shown once. Read-outs that look alike come from different tables or passages of the source.",
  "data": [
    {"compound": "COc1cccc2c1C(=O)c1c(O)c3c(c(O)c1C2=O)C[C@@](O)(C(=O)CO)C[C@@H]3O[C@H]1C[C@H](N)[C@H](O)[C@H](C)O1", "note": "[DOX, doxorubicin]", "values": [
      {"measurement": "IC50", "setting": "[1]; HSC-3 (human oral squamous cell carcinoma), 72 h", "value": 400, "unit": "nM"},
      {"measurement": "selectivity index (SI)", "setting": "[1]; IC50 HaCAT / IC50 HSC-3", "value": 0.3},
      {"measurement": "selectivity index (SI)", "setting": "[1]; IC50 MRC5 / IC50 HSC-3", "value": 3.3},
      {"measurement": "selectivity index (SI)", "setting": "[1]; IC50 PBMC / IC50 HSC-3", "value": 13},
      {"measurement": "IC50", "setting": "[2]; ACP-03 (human gastric adenocarcinoma), 72 h", "value": 2400, "unit": "nM"},
      {"measurement": "selectivity index (SI)", "setting": "[2]; IC50 HaCAT / IC50 ACP-03", "value": 0.04},
      {"measurement": "selectivity index (SI)", "setting": "[2]; IC50 MRC5 / IC50 ACP-03", "value": 0.5},
      {"measurement": "selectivity index (SI)", "setting": "[2]; IC50 PBMC / IC50 ACP-03", "value": 2.2},
      {"measurement": "selectivity index (SI)", "setting": "[3]; IC50 HaCAT / IC50 MCF-7", "value": 0.1},
      {"measurement": "selectivity index (SI)", "setting": "[3]; IC50 MRC5 / IC50 MCF-7", "value": 1.2},
      {"measurement": "selectivity index (SI)", "setting": "[3]; IC50 PBMC / IC50 MCF-7", "value": 4.7},
      {"measurement": "IC50", "setting": "[3]; MCF7, MCF-7 (human breast adenocarcinoma), 72 h", "value": 1100, "unit": "nM"},
      {"measurement": "selectivity index (SI)", "setting": "[4]; IC50 HaCAT / IC50 K-562", "value": 0.1},
      {"measurement": "selectivity index (SI)", "setting": "[4]; IC50 MRC5 / IC50 K-562", "value": 1.3},
      {"measurement": "selectivity index (SI)", "setting": "[4]; IC50 PBMC / IC50 K-562", "value": 5.2},
      {"measurement": "IC50", "setting": "[4]; K562, K-562 (human chronic myelogenous leukemia), 72 h", "value": 1000, "unit": "nM"},
      {"measurement": "RQ ABL1 gene expression", "setting": "[5]", "value": 2.628},
      {"measurement": "RQ AKT1 gene expression", "setting": "[5]", "value": 1.813},
      {"measurement": "RQ AKT2 gene expression", "setting": "[5]", "value": "3.3 and 3.275"},
      {"measurement": "RQ APC gene expression", "setting": "[5]", "value": 1.780},
      {"measurement": "RQ BAX gene expression", "setting": "[5]", "value": 0.964},
      {"measurement": "RQ BCAR1 gene expression", "setting": "[5]", "value": "2.2 and 2.176"},
      {"measurement": "RQ BCL2L1 gene expression", "setting": "[5]", "value": 0.663},
      {"measurement": "RQ BCL2L11 gene expression", "setting": "[5]", "value": "14.0 and 13.988"},
      {"measurement": "RQ BCL2 gene expression", "setting": "[5]", "value": "1.1 and 1.140"},
      {"measurement": "RQ BID gene expression", "setting": "[5]", "value": 1.433},
      {"measurement": "RQ BRAF gene expression", "setting": "[5]", "value": "1.0 and 1.012"},
      {"measurement": "RQ CASP8 gene expression", "setting": "[5]", "value": 1.414},
      {"measurement": "RQ CASP9 gene expression", "setting": "[5]", "value": 0.957},
      {"measurement": "RQ CCND1 gene expression", "setting": "[5]", "value": "0.8 and 0.820"},
      {"measurement": "RQ CCND3 gene expression", "setting": "[5]", "value": "1.2 and 1.151"},
      {"measurement": "RQ CCNE1 gene expression", "setting": "[5]", "value": 1.535},
      {"measurement": "RQ CDC42 gene expression", "setting": "[5]", "value": "1.1 and 1.077"},
      {"measurement": "RQ CDK2 gene expression", "setting": "[5]", "value": 4.331},
      {"measurement": "RQ CDK4 gene expression", "setting": "[5]", "value": "1.4 and 1.427"},
      {"measurement": "RQ CDKN1A gene expression", "setting": "[5]", "value": 2.849},
      {"measurement": "RQ CDKN1B gene expression", "setting": "[5]", "value": "1.0 and 1.029"},
      {"measurement": "RQ CDKN2A gene expression", "setting": "[5]", "value": "2.0 and 2.027"},
      {"measurement": "RQ CRK gene expression", "setting": "[5]", "value": "2.5 and 2.519"},
      {"measurement": "RQ CTNNB1 gene expression", "setting": "[5]", "value": 2.392},
      {"measurement": "RQ CYCS gene expression", "setting": "[5]", "value": 0.582},
      {"measurement": "RQ DVL1 gene expression", "setting": "[5]", "value": "0.5 and 0.539"},
      {"measurement": "RQ E2F1 gene expression", "setting": "[5]", "value": "4.8 and 4.768"},
      {"measurement": "RQ EGFR gene expression", "setting": "[5]", "value": "0.5 and 0.502"},
      {"measurement": "RQ ELK1 gene expression", "setting": "[5]", "value": "2.1 and 2.142"},
      {"measurement": "RQ ERBB2 gene expression", "setting": "[5]", "value": "1.8 and 1.746"},
      {"measurement": "RQ FADD gene expression", "setting": "[5]", "value": 3.100},
      {"measurement": "RQ FAS gene expression", "setting": "[5]", "value": "2.5 and 2.459"},
      {"measurement": "RQ FGF2 gene expression", "setting": "[5]", "value": "1.9 and 1.914"},
      {"measurement": "RQ FOS gene expression", "setting": "[5]", "value": 1.514},
      {"measurement": "RQ FYN gene expression", "setting": "[5]", "value": "1.0 and 1.034"},
      {"measurement": "RQ FZD1 gene expression", "setting": "[5]", "value": "5.8 and 5.811"},
      {"measurement": "RQ GRB2 gene expression", "setting": "[5]", "value": 1.030},
      {"measurement": "RQ GSK3B gene expression", "setting": "[5]", "value": 0.590},
      {"measurement": "RQ HRAS gene expression", "setting": "[5]", "value": "1.4 and 1.370"},
      {"measurement": "RQ IGF1R gene expression", "setting": "[5]", "value": 1.160},
      {"measurement": "RQ ITGA2B gene expression", "setting": "[5]", "value": "2.4 and 2.384"},
      {"measurement": "RQ ITGAV gene expression", "setting": "[5]", "value": 2.101},
      {"measurement": "RQ ITGB1 gene expression", "setting": "[5]", "value": 1.941},
      {"measurement": "RQ ITGB3 gene expression", "setting": "[5]", "value": 1.707},
      {"measurement": "RQ JUN gene expression", "setting": "[5]", "value": "7.3 and 7.340"},
      {"measurement": "RQ KRAS gene expression", "setting": "[5]", "value": "2.6 and 2.552"},
      {"measurement": "RQ MAP2K1 gene expression", "setting": "[5]", "value": "2.4 and 2.441"},
      {"measurement": "RQ MAP3K5 gene expression", "setting": "[5]", "value": 1.887},
      {"measurement": "RQ MAPK1 gene expression", "setting": "[5]", "value": "0.9 and 0.857"},
      {"measurement": "RQ MAPK3 gene expression", "setting": "[5]", "value": 1.561},
      {"measurement": "RQ MAPK8 gene expression", "setting": "[5]", "value": 1.273},
      {"measurement": "RQ MAPK14 gene expression", "setting": "[5]", "value": "2.2 and 2.163"},
      {"measurement": "RQ MDM2 gene expression", "setting": "[5]", "value": "0.9 and 0.928"},
      {"measurement": "RQ MYC gene expression", "setting": "[5]", "value": "0.4 and 0.392"},
      {"measurement": "RQ NFKB1 gene expression", "setting": "[5]", "value": "2.0 and 2.017"},
      {"measurement": "RQ NFKB2 gene expression", "setting": "[5]", "value": "3.6 and 3.594"},
      {"measurement": "RQ NFKBIA gene expression", "setting": "[5]", "value": 1.224},
      {"measurement": "RQ NRAS gene expression", "setting": "[5]", "value": 1.874},
      {"measurement": "RQ PIK3CA gene expression", "setting": "[5]", "value": 2.854},
      {"measurement": "RQ PIK3R1 gene expression", "setting": "[5]", "value": 6.207},
      {"measurement": "RQ PTEN gene expression", "setting": "[5]", "value": 0.476},
      {"measurement": "RQ PTK2B gene expression", "setting": "[5]", "value": 0.530},
      {"measurement": "RQ PTK2 gene expression", "setting": "[5]", "value": "1.0 and 0.948"},
      {"measurement": "RQ RAC1 gene expression", "setting": "[5]", "value": 2.048},
      {"measurement": "RQ RAF1 gene expression", "setting": "[5]", "value": "3.5 and 3.447"},
      {"measurement": "RQ RB1 gene expression", "setting": "[5]", "value": 1.230},
      {"measurement": "RQ RELA gene expression", "setting": "[5]", "value": "1.1 and 1.074"},
      {"measurement": "RQ RHOA gene expression", "setting": "[5]", "value": 1.270},
      {"measurement": "RQ SHC1 gene expression", "setting": "[5]", "value": "1.9 and 1.865"},
      {"measurement": "RQ SMAD4 gene expression", "setting": "[5]", "value": "2.6 and 2.601"},
      {"measurement": "RQ SOS1 gene expression", "setting": "[5]", "value": "2.2 and 2.199"},
      {"measurement": "RQ SRC gene expression", "setting": "[5]", "value": 1.036},
      {"measurement": "RQ TCF3 gene expression", "setting": "[5]", "value": "1.9 and 1.915"},
      {"measurement": "RQ TGFB1 gene expression", "setting": "[5]", "value": 1.413},
      {"measurement": "RQ TGFBR1 gene expression", "setting": "[5]", "value": 1.403},
      {"measurement": "RQ TGFBR2 gene expression", "setting": "[5]", "value": 1.094},
      {"measurement": "RQ TP53 gene expression", "setting": "[5]", "value": "1.0 and 0.945"},
      {"measurement": "RQ VEGFA gene expression", "setting": "[5]", "value": "1.8 and 1.772"}
    ]}
  ]
}
